Experimental data taken from patent US10940188B2, “Compounds and methods for treatment and prevention of Flavivirus infection” (priority 2016, dated 2021).
Values joined by “and” are separate entries in the source; they are usually repeats but may differ in a detail not shown here. Identical values can stand only once. Like-named read-outs stand apart in the source and are kept apart here.

How the values were obtained:
[1] = tested on: ZIKV-induced cell death in hNPCs; assay: ATP cell viability assay for ZIKV-induced cell death, hNPCs; type: cell-based, human; details: for IC50: Homo sapiens
Experimental: (§1) The reagent was reconstituted and prepared as described by the manufacturer. In order to measure the cell death caused by ZIKV infection, cells were cultured for 16 hours at 37° C. with 5% CO2 in assay plates, followed by the addition of ZIKV solution and incubation at 37° C. with 5% CO2 for 72 hours. ATPlite, the ATP monitoring reagent, was then added to the assay plates and they were incubated for 15 minutes. The resulting luminescence was measured using the ViewLux plate reader (Perkin Elmer). Data were normalized using the wells without cells as a control for 100% cell killing, and cell-containing wells without ZIKV infection were used as full cell viability (0% cell killing).
Human NPCs were seeded onto PDL coated 1536-well assay plates at 250 cells per 3 μl/well and incubated at 37° C. in 5% CO2 for 16 hours. Test compounds dissolved in DMSO were transferred to assay plates at a volume of 23 nl/well by an automated pintool workstation (Wako Automation, San Diego, Calif.). Compounds were incubated with cells for 30 minutes at 37° C. in 5% CO2, immediately followed by the addition of 2 μl/well of ZIKV. Incubation time of compound-treated cells with ZIKV varied based on assay format. Experiments measuring virus-induced caspase 3/7 activity required a 6 hour incubation of ZIKV in the presence compounds at 37° C. in 5% CO2. Following this incubation, 3.5 μl/well of caspase 3/7 reagent mixture was added to assay plates. The plates were incubated for 30 minutes at room temperature, and the resultant luminescence signal was measured using a ViewLux plate reader (Perkin Elmer). Experiments measuring virus-induced cell death required a 72-hour incubation of ZIKV in the presence of compounds at 37° C. in 5% CO2. Following this incubation, 3.5 μl/well of ATP content detection reagent was added to assay plates, incubated for 30 minutes at the room temperature, and the resultant luminescence signal was measured in a ViewLux plate reader.
as §1, with “The ATPlite luminescence assay system assay kit (PerkinElmer) was used to determine cell viability. The reagent” for “The reagent”, “by the manufacture. In order” for “by the manufacturer. In order”, “followed by addition of” for “followed by the addition of”, “plates and incubated for” for “plates and they were incubated for”, “Elmer). Data was normalized using” for “Elmer). Data were normalized using”
Human NPCs were seeded onto PDL coated 1536-well assay plates at 250 cells per 3 μl/well and incubated at 37° C. in 5% CO2 for 16 hours. Test compounds dissolved in DMSO were transferred to assay plates at a volume of 23 nl/well by an automated pintool workstation (Wako Automation, San Diego, Calif.). Compounds were incubated with cells for 30 minutes at 37° C. in 5% CO2, immediately followed by the addition of 2 μl/well of ZIKV. Incubation time of compound-treated cells with ZIKV varied based on assay format. Experiments measuring virus induced caspase 3/7 activity required a 6 hour incubation of ZIKV in the presence compounds at 37° C. in 5% CO2. Following this incubation, 3 μl/well of caspase 3/7 reagent mixture was added to assay plates, incubated for 30 minute at room temperature, and the resultant luminescence signal was measured using a ViewLux plate reader (Perkin Elmer). Experiments measuring the virus induced cell death required a 72 hour incubation of ZIKV in the presence of compounds at 37° C. in 5% CO2. Following this incubation, 3 μl/well of ATP content detection reagent was added to assay plates, incubated for 30 minute at room temperature, and the resultant luminescence signal was measured in a ViewLux plate reader.

[2] = tested on: ZIKV-induced cell death in human astrocytes; assay: ATP cell viability assay for ZIKV-induced cell death, human astrocytes; type: cell-based
[3] = tested on: ZIKV-induced caspase 3/7 activity in SNB-19 cells; assay: Caspase 3/7 activity assay, ZIKV-infected SNB-19 cells; type: cell-based
How it was run: (§2)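 Human NPCs, SNB-19 cells or astrocytes seeded 16 h, compound added 30 min before ZIKV, then 6 h infection at 37 °C. Caspase-Glo 3/7 luminescence after 30 min at room temperature, normalized to uninfected cells (0%) and ZIKV-infected cells (100%).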

[4] = tested on: ZIKV-induced caspase 3/7 activity in human astrocytes; assay: Caspase 3/7 activity assay, ZIKV-infected human astrocytes; type: cell-based; details: for IC50: read-out: Caspase 3 (IC50, uM) Astrocyte; for Emax: read-out: Caspase 3 (efficacy, %) Astrocyte
How it was run: as §2

[5] = Homo sapiens, ZIKV-infected SNB-19 cells, read-out: Caspase 3 (IC50, uM) SNB-19
[6] = Homo sapiens, ZIKV-infected SNB-19 cells, read-out: Caspase 3 (efficacy, %) SNB-19
[7] = Astrocyte, ZIKV-infected human astrocytes
[8] = Astrocyte, ZIKV-infected human astrocytes, read-out: Cell viability (IC50, uM) Astrocyte
[9] = Homo sapiens, Astrocyte, following ZIKV infection, read-out: IC50 (μM) for improving cell viability, Astrocytes
[10] = ZIKV-infected SNB-19 cells, read-out: Caspase 3 (IC50, uM) SNB-19

| Molecule | Cell viability (efficacy, %) NPCs ([1]; ZIKV-infected hNPCs) | Cell viability (efficacy, %) Astrocyte ([2]; ZIKV-infected human astrocytes) | IC50 [3, 5] | Emax [3, 6] | IC50 [4, 7] | Emax [4, 7] | other results |
| --- | --- | --- | --- | --- | --- | --- | --- |
| COc1cccc(-c2ccc(NC(=O)C3=C(C(=O)O)CCC3)c(F)c2)c1 [Vidofludimus] | 0.0% | 0.0% | 3.66 µM | 101% | 2.91 µM | 101% | – |
| C[C@H](NC(=O)C(=O)Nc1ccccc1C(C)(C)C)C(=O)N[C@@H](CC(=O)O)C(=O)COc1c(F)c(F)cc(F)c1F [Emricasan] | 54.4% | 98.7% | 0.62 µM | 97.6% | 0.46 µM | 77.1% | IC50 ([1]; ZIKV-infected hNPCs, read-out: Cell viability (IC50, uM) NPCs): 3.88 µM; IC50 ([1]; following ZIKV infection, read-out: IC50 (μM) for improving cell viability, hNPCs): 3.88 µM; IC50 [2, 8]: 4.11 µM; IC50 [2, 9]: 4.11 µM; IC50 ([3]; Homo sapiens, SNB-19 cells, three ZIKV strains MR766, FSS13025, PRVABC59, read-out: IC50 in the caspase activity assay): 0.13 to 0.9 µM |
| CC(C(=O)O)c1ccc(C(=O)c2cccs2)cc1 (stereo not drawn) [Suprofen] | 0.0% | 0.0% | 17.3 µM | 65.6% | 19.5 µM | 64.5% | – |
| O=S(=O)(O)c1ccc2[nH]c(-c3ccccc3)nc2c1 [Ensulizole] | 0.0% | 0.0% | – | – | – | – | IC50 ([3]; Homo sapiens, SNB-19, read-out: Caspase 3 (IC50, uM) SNB-19): 1.84 µM; Emax ([3]; Homo sapiens, SNB-19, read-out: Caspase 3 (efficacy, %) SNB-19): 73.3%; IC50 ([4]; Homo sapiens, Astrocyte): 1.95 µM; Emax ([4]; Homo sapiens, Astrocyte): 82.7% |
| N#CC1(c2ccc(NC(=O)c3cccnc3NCc3ccncc3)cc2)CCCC1 [Apatinib] | 0.0% | 0.0% | 24.5 µM | 61.2% | 19.5 µM | 57.9% | – |
| O=C(Nc1ccc(C(=O)O)c(O)c1)c1ccccc1 [Benzoylpas] | 0.0% | 0.0% | 6.9 µM | 92.8% | 5.81 µM | 94.9% | – |
| Cc1cccc(/C=C/c2ccccc2)n1 [SIB 1893] | 0.0% | 0.0% | – | – | – | – | Caspase 3 (efficacy, %) SNB-19 ([3]; ZIKV-infected SNB-19 cells): 105%; IC50 [3, 10]: 15.5 µM; Caspase 3 (efficacy, %) Astrocyte ([4]; ZIKV-infected human astrocytes): 96.2%; IC50 ([4]; ZIKV-infected human astrocytes): 12.3 µM |
| CN(C)CCCSc1ccccc1NC(=O)/C=C/c1ccccc1 [Cinanserin] | 0.0% | 0.0% | 12.3 µM | 92% | 15.5 µM | 80.2% | – |
| Cc1ccc(O)c(-n2nc3ccccc3n2)c1 [2-(2H-Benzotriazol-2-yl)-4-methylphenol] | 0.0% | 0.0% | 8.69 µM | 80.1% | 9.2 µM | 68.5% | – |
| O=C(O)c1ccccc1Nc1cccc(C(F)(F)F)c1 [Flufenamic acid] | 0.0% | 0.0% | 10.9 µM | 61.5% | 8.69 µM | 71.9% | – |
| O=C1c2ccccc2C(=O)c2c1ccc(O)c2O [Alizarin] | 0.0% | 0.0% | 21.8 µM | 40.9% | 30.8 µM | 47.9% | – |
| Vitamin B12 | 0.0% | 0.0% | – | – | – | – | IC50 [3, 10]: 11.6 µM and 13.4 µM; Caspase 3 (efficacy, %) Astrocyte ([4]; ZIKV-infected human astrocytes): 77.1% and 62.7%; IC50 ([4]; ZIKV-infected human astrocytes): 8.69 µM and 6.73 µM |
| CC(=O)Nc1ccc([C@H](C)C(=O)Nc2ncc(C(C)C)s2)cc1 [PHA-690509] | – | 81.9% | – | – | – | – | IC50 ([2]; ZIKV-infected human astrocytes, read-out: Cell viability (IC50, uM) Astrocyte): 7.74 µM; IC50 ([2]; following ZIKV infection, read-out: IC50 (μM) for improving cell viability, Astrocytes): 7.47 µM; Caspase 3 (efficacy, %) SNB-19 ([3]; ZIKV-infected SNB-19 cells): 74.6%; IC50 [3, 10]: 9.2 µM; Caspase 3 (efficacy, %) Astrocyte ([4]; ZIKV-infected human astrocytes): 71.6%; IC50 ([4]; ZIKV-infected human astrocytes): 13 µM |
| CN1CC(=O)NC1=NC(=O)Nc1cccc(Cl)c1 [Fenobam] | 0.0% | 0.0% | – | – | – | – | Caspase 3 (efficacy, %) SNB-19 ([3]; ZIKV-infected SNB-19 cells): 110%; IC50 [3, 10]: 7.31 µM; Caspase 3 (efficacy, %) Astrocyte ([4]; ZIKV-infected human astrocytes): 97.2%; IC50 ([4]; ZIKV-infected human astrocytes): 9.2 µM |
| Cc1cccc(C#Cc2ccccc2)n1 [MPEP, 2-Methyl-6-(phenylethynyl)pyridine] | 0.0% | 0.0% | 5.18 µM | 98.6% | 5.81 µM | 118% | – |
| Flurbiprofen axetil | 0.0% | 0.0% | – | – | – | – | Caspase 3 (efficacy, %) SNB-19 ([3]; ZIKV-infected SNB-19 cells): 45.7%; IC50 [3, 10]: 19.5 µM; Caspase 3 (efficacy, %) Astrocyte ([4]; ZIKV-infected human astrocytes): 65.5%; IC50 ([4]; ZIKV-infected human astrocytes): 21.8 µM |
| CN1CCN(c2cc3c(nn2)Oc2ccccc2N3C)CC1 [Pipofezine] | 0.0% | 0.0% | 15.1 µM | 31.5% | 11.3 µM | 56.3% | – |
| CCC(C(=O)O)c1ccc(N2Cc3ccccc3C2=O)cc1 (stereo not drawn) [Indobufen] | 0.0% | 0.0% | 7.74 µM | 85.8% | 6.52 µM | 86.3% | – |
| O=C(OCc1ccccc1)c1ccc(O)cc1 [Benzylparaben] | 0.0% | 0.0% | 19.5 µM | 91.8% | 17.3 µM | 62.8% | – |
| CC(C(=O)O)c1ccc(C(=O)c2ccccc2)s1 (stereo not drawn) [Tiaprofenic acid] | 0.0% | 0.0% | 10.3 µM | 96.2% | 6.15 µM | 88.2% | – |
| O=C(Nc1ccc([N+](=O)[O-])cc1Cl)c1cc(Cl)ccc1O [Niclosamide] | – | 51.2% | 2.06 µM | 93.9% | 1.84 µM | 96.8% | IC50 [2, 8]: 1.73 µM; IC50 [2, 9]: 1.73 µM |
| O=C(O)CCC(=O)c1ccc(-c2ccccc2)cc1 [Fenbufen] | 0.0% | 0.0% | 24.5 µM | 76.3% | 21.8 µM | 81.5% | – |
| O=C1NC(=O)/C(=C/c2ccc(-c3ccc(F)cc3O)o2)S1 [AS-252424] | 0.0% | 0.0% | – | – | – | – | Caspase 3 (efficacy, %) SNB-19 ([3]; ZIKV-infected SNB-19 cells): 38.0%; IC50 [3, 10]: 2.18 µM; Caspase 3 (efficacy, %) Astrocyte ([4]; ZIKV-infected human astrocytes): 37.5%; IC50 ([4]; ZIKV-infected human astrocytes): 1.73 µM |
